What was measured:
[1] = biological target: T1, rat liver microsomal CYP1A2 (Rattus norvegicus, UniProt P04799); experiment: MROD fluorescence assay in rat liver microsomes, inhibition kinetics (IC50 […]); format: biochemical
T1 construct: rat liver microsomes
T1 sequence (P04799 2-513): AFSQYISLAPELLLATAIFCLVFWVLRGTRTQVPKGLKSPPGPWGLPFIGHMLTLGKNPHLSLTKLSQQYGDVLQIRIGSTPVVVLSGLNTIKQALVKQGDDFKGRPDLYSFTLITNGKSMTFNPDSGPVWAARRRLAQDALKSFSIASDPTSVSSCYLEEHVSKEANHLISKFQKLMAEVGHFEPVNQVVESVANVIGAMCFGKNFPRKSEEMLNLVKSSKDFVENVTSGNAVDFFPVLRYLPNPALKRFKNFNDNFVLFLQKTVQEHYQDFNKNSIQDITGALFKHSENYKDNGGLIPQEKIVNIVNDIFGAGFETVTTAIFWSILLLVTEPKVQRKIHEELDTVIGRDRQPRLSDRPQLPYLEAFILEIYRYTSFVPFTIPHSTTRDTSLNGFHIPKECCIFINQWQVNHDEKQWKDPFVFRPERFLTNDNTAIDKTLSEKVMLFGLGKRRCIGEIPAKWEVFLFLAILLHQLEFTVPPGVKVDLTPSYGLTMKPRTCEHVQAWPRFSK

[2] = substrate: COc1ccc2nc3ccc(=O)cc-3oc2c1; experiment: MROD kinetics with recombinant CYP1A2 membranes; value is Km; format: biochemical, Homo sapiens; conditions: heme; NADPH

Molecule: Oc1ccc(/C=C/c2cc(O)cc(O)c2)cc1 [RSV, trans-3,4′,5-trihydroxystilbene]
- Ki [1]: 49.1 µM

B1: human recombinant CYP1A2 (Homo sapiens) (protein)
chain: ALSQSVPFSATELLLASAIFCLVFWVLKGLRPRVPKGLKSPPEPWGWPLLGHVLTLGKNPHLALSRMSQRYGDVLQIRIGSTPVLVLSRLDTIRQALVRQGDDFKGRPDLYTSTLITDGQSLTFSTDSGPVWAARRRLAQNALNTFSIASDPASSSSCYLEEHVSKEAKALISRLQELMAGPGHFDPYNQVVVSVANVIGAMCFGQHFPESSDEMLSLVKNTHEFVETASSGNPLDFFPILRYLPNPALQRFKAFNQRFLWFLQKTVQEHYQDFDKNSVRDITGALFKHSKKGPRASGNLIPQEKIVNLVNDIFGAGFDTVTTAISWSLMYLVTKPEIQRKIQKELDTVIGRERRPRLSDRPQLPYLEAFILETFRHSSFLPFTIPHSTTRDTTLNGFYIPKKCCVFVNQWQVNHDPELWEDPSEFRPERFLTADGTAINKPLSEKMMLFGMGKRRCIGEVLAKWEIFLFLAILLQQLEFSVPPGVKVDLTPIYGLTMKHARCEHVQARLRFSIN
notes: human CYP1A2 expressed with NADPH P450 reductase in Escherichia coli DH5α; bacterial membranes; with NADPH P450 reductase
- Km [2]: 1.67 µM

From paper PMC12655445, “In Vitro and In Vivo Effects of Resveratrol on Rat Hepatic CYP1A2” (Pharmaceuticals, 2025)
